Test results from patent US9040523B2, “Antifungal 5,6-dihydro-4H-pyrrolo[1,2-α][1,4]-benzodiazepines and 6H-pyrrolo[1,2-α][1,4]benzodiazepines substituted with benzene derivatives” (JANSSEN PHARMACEUTICA NV, priority 2010, dated 2015).
Values belong to the molecule of their own block, whether it stands above or below them.

What was measured:
Cytochrome P450 2C8 = target: T1, Cytochrome P450 2C8 (Homo sapiens, UniProt P10632); assay: Human liver microsomal cytochrome P450 cocktail inhibition assay, Protocol C; format: in vitro ADME; details: human liver microsomes 0.2 mg/ml; probe amodiaquine 2 microM; read-out: 2C8_Amod pIC50 (converted)
T1 construct: tissue BD Gentest; host or cells: human liver microsomes
T1 sequence (P10632 1-490): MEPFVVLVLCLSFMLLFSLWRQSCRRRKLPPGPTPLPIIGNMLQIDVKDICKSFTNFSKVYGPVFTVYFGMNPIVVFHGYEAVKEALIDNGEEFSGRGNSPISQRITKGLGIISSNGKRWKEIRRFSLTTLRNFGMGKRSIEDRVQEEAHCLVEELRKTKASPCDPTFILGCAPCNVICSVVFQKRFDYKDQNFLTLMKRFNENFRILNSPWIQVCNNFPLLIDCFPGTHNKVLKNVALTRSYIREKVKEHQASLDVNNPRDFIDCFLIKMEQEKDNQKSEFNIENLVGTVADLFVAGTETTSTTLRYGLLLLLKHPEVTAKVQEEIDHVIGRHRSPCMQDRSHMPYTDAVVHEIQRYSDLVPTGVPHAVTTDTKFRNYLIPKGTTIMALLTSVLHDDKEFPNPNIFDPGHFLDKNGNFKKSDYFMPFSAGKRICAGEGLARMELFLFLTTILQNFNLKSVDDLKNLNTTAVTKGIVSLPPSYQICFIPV

Cytochrome P450 1A2 = target: T2, Cytochrome P450 1A2 (Homo sapiens, UniProt P05177); assay: as above
T2 sequence (P05177 1-516): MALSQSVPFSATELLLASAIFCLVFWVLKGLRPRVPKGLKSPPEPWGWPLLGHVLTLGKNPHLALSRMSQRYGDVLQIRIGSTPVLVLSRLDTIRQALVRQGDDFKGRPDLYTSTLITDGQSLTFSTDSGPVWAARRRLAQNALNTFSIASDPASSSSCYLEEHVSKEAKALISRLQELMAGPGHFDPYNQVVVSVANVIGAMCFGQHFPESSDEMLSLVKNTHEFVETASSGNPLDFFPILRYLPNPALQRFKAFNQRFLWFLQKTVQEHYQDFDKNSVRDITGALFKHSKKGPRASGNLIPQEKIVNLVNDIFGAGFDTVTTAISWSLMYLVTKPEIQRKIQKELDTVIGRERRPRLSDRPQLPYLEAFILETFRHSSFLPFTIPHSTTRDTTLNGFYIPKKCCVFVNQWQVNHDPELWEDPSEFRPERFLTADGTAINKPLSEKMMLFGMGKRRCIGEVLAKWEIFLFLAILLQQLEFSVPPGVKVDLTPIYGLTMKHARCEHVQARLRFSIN

Cytochrome P450 2D6 = Cytochrome P450 2D6 (Homo sapiens, UniProt P10635); assay: as above; details: 2D6_Dextro pIC50, human liver microsomes 0.2 mg/ml; probe dextromethorphan 3 microM
Chain of Cytochrome P450 2D6 (P10635 whole entry): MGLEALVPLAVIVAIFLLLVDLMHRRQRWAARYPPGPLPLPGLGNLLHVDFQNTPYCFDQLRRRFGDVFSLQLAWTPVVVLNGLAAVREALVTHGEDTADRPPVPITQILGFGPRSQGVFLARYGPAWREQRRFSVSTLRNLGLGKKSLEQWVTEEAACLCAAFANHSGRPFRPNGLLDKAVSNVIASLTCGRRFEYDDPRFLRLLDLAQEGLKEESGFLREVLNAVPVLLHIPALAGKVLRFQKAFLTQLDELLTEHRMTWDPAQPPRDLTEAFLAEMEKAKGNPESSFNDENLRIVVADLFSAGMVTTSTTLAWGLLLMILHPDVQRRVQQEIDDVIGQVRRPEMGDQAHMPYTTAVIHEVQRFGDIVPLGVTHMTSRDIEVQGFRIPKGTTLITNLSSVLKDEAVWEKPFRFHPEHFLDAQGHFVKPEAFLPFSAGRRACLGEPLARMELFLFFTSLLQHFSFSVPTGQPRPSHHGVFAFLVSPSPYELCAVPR

CYP2C9 = CYP2C9 (Homo sapiens, UniProt P11712); assay: as above; details: human, liver microsomes, pH 7.4, probe tolbutamide (100 microM), 2C9 Tolbut pIC50, human liver microsomes 0.2 mg/ml
Chain of CYP2C9 (P11712 whole entry): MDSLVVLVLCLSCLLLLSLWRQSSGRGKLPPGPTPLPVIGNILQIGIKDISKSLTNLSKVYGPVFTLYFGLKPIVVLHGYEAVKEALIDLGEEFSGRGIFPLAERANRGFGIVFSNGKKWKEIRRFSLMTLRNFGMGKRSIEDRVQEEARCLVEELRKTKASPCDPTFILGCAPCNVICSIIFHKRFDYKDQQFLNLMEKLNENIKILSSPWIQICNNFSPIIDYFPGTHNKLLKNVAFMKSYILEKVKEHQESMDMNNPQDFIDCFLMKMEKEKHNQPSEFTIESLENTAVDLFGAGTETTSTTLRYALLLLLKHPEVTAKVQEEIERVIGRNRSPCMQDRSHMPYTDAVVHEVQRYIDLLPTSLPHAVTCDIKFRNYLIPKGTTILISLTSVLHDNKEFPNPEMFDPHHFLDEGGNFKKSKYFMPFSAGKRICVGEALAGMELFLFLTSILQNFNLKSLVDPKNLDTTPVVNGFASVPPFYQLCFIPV

Cytochrome P450 2C19 = Cytochrome P450 2C19 (Homo sapiens, UniProt P33261); assay: as above; details: 2C19_S-Meph pIC50, human liver microsomes 0.2 mg/ml; probe S-mephenytoin 30 microM
Chain of Cytochrome P450 2C19 (P33261 whole entry): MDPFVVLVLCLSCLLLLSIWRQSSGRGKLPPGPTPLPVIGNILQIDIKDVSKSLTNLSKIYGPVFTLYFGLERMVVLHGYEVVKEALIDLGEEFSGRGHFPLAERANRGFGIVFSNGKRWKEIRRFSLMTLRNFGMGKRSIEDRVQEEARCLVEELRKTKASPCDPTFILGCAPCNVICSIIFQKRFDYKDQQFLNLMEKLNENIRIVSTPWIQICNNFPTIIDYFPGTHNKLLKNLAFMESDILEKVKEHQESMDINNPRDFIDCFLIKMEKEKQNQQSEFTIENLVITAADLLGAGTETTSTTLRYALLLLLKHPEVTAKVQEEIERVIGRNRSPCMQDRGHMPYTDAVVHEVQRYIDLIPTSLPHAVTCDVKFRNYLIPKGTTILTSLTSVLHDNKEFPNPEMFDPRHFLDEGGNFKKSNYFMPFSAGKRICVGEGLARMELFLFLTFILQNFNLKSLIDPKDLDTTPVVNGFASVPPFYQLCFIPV

CYP3A4/5 = CYP3A4/5 (Homo sapiens, UniProt P08684); assay: in vitro; details: liver microsomes, pH 7.4, probe midazolam (2 microM)
Chain of CYP3A4/5 (P08684 2-503): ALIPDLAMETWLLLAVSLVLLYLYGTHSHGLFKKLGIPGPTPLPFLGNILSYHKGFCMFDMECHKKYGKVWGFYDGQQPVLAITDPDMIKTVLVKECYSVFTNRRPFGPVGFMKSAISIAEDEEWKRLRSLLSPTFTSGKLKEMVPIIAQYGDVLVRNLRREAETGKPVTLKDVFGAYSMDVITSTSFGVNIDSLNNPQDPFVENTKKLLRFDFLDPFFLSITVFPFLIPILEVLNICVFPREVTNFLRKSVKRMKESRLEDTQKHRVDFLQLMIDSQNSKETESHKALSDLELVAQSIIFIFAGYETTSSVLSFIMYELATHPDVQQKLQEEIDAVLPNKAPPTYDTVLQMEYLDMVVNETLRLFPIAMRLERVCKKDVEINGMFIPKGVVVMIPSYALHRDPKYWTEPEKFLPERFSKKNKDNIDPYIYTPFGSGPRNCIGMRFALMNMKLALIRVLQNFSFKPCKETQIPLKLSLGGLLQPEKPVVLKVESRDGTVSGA
Experimental: Probe substrates and final assay concentrations with the appropriate internal standard are outlined in Table 6a.
After a 10 min pre-incubation at 37° C., the reaction was started with addition of NADPH at a final concentration of 1.0 mM. […] The samples are centrifuged for 10 min at 4° C. at 4000 rpm and 60 microliters supernatant is diluted with 180 microliters water. Each sample is injected onto a UPLC/MS system for the simultaneous measurement of the probe substrate metabolites and their associated deuterated internal standards.
Percentage inhibition data are plotted against the Log transformed test compound concentration and after curve fitting the IC50-value is determined.

[1] = Liver metabolic stability assay, hLM; format: in vitro ADME, human; details: human liver microsomes, 1 mg protein/ml, 5 μM test compound, 15 min, 37 °C
[2] = system: Trichophyton rubrum B68183; assay: Antifungal activity in vitro (resazurin susceptibility screen), Inf. C; format: cell-based; details: Trichophyton rubrum B68183; 27 °C, 7 days, resa time 24 hours; read-out: Inf. C pIC50 (converted)
Summary of the method: (§1)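 Serially diluted compounds were pre-spotted into 96-well U-bottom plates, then each well received 10^3 cfu of cryopreserved fungal inoculum in 200 μl RPMI-MOPS medium. Every plate carried a compound-free growth control (100%) and a medium-only control (0%), with resazurin as read-out.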

[3] = system: Sporothrix schenkii B62482; assay: Antifungal activity in vitro (resazurin susceptibility screen), Inf. A; format: cell-based; details: Sporothrix, B62482, Sporothrix schenkii B62482; 27 °C, 4 days, resa time 24 hours; highest in-test concentration 64 μM; read-out: Inf. A pIC50 (converted)
Summary of the method: as §1

Rhizopus oryzae IHEM5223 = assay: Antifungal activity in vitro (resazurin susceptibility screen), Inf. J; format: cell-based; details: Rhizopus arrhizus, 37 °C, 24 hours, resa time 6 hours, read-out: Inf. J pIC50 (converted)
Experimental: (§2) The standard susceptibility screen was performed in 96-well plates (U-bottom, Greiner Bio-One). […] These serial dilutions (10 n1) were then spotted onto test-plates that could be stored in the dark at 4° C. for a maximum period of 2 weeks. […] The different fungal species/isolates (Table 3a) were cryopreserved and 1/1000 diluted in medium just prior to use. A standard inoculum of 200 μl containing 10^3 colony-forming unit (cfu) was then added to each well. A positive control (100% growth=fungal culture without antifungal) and a negative control (0% growth ═RPMI-MOPS medium) were included on each plate. […] [table]

[4] = system: Rhizomucor miehei IHEM13391; assay: Antifungal activity in vitro (resazurin susceptibility screen), Inf. K; format: cell-based; details: 37 °C, 48 hours, resa time 17 hours, read-out: Inf. K pIC50 (converted)
Experimental: as §2

[5] = system: Aspergillus fumigatus B42928; assay: Antifungal activity in vitro (resazurin susceptibility screen), Inf. E; format: cell-based; details: Aspergillus fumigatus B42928; 27 °C, 48 hours, resa time 17 hours; read-out: Inf. E pIC50 (converted)
Summary of the method: as §1

[6] = system: Trichophyton mentagrophytes B70554; assay: Antifungal activity in vitro (resazurin susceptibility screen), Inf. G; format: cell-based; details: Trichophyton mentagrophytes, B70554, Trichophyton mentagrophytes B70554; 27 °C, 7 days, resa time 24 hours; read-out: Inf. G pIC50 (converted)
Summary of the method: (§3)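 Each well was inoculated with 10^3 cfu of fungus onto dried, pre-spotted compound serial dilutions in RPMI-MOPS medium, with fungal growth read by resazurin. Growth was referenced to drug-free culture (100%) and medium-only (0%) controls on each plate.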

[7] = system: Scedosporium apiospermum IHEM3817; assay: Antifungal activity in vitro (resazurin susceptibility screen), Inf. H; format: cell-based; details: 37 °C, 48 hours, resa time 17 hours, read-out: Inf. H pIC50 (converted)
Experimental: as §2

[8] = Liver metabolic stability assay, gpLM; format: in vitro ADME, guinea pig; details: guinea pig microsomes, 1 mg protein/ml, 5 μM test compound, 15 min, 37 °C
[9] = system: Candida parapsilosis B66126; assay: Antifungal activity in vitro (resazurin susceptibility screen), Inf. D; format: cell-based; details: Lodderomyces parapsilosis; Candida parapsilosis B66126; 37 °C, 24 hours, resa time 4 hours; read-out: Inf. D pIC50 (converted)
Summary of the method: as §3

[10] = system: Cryptococcus neoformans B66663; assay: Antifungal activity in vitro (resazurin susceptibility screen), Inf. F; format: cell-based; details: Cryptococcus neoformans, B66663, Cryptococcus neoformans B66663; 37 °C, 24 hours, resa time 4 hours; read-out: Inf. F pIC50 (converted)
Summary of the method: as §1

[11] = system: Scedosporium prolificans IHEM21157; assay: Antifungal activity in vitro (resazurin susceptibility screen), Inf. I; format: cell-based; details: Lomentospora prolificans, 37 °C, 48 hours, resa time 17 hours, read-out: Inf. I pIC50 (converted)
Experimental: as §2

Microsporum canis B68128 = assay: Antifungal activity in vitro (resazurin susceptibility screen), Inf. B; format: cell-based; details: Microsporum canis, B68128, Microsporum canis B68128; 27 °C, 9 days, resa time 24 hours; read-out: Inf. B pIC50 (converted)
Summary of the method: as §3

[12] = system: Mucor circinelloides IHEM21105; assay: Antifungal activity in vitro (resazurin susceptibility screen), Inf. L; format: cell-based; details: 27 °C, 48 hours, resa time 17 hours, read-out: Inf. L pIC50 (converted)
Experimental: as §2

CYP2D6 = CYP2D6 (Homo sapiens, UniProt P10635); assay: Human liver microsomal cytochrome P450 inhibition assay, Protocol B; format: in vitro ADME; details: pH 7.4; at 30 μM; solvent condition B (0.30% DMSO+0.68% acetonitrile); human liver microsomes; probe dextromethorphan
Chain of CYP2D6 (P10635 whole entry): as the sequence (P10635 whole entry) above
Experimental: (§4) The samples are centrifuged for 10 min at 4° C. at 4000 rpm and the supernatant is analyzed. Analysis for CYP1A2 with resorufin was performed by fluorescence while the CY2D6 inhibition potential was assessed using LC-MS detection.

CYP1A2 = target: T3, CYP1A2 (Homo sapiens, UniProt P05177); assay: as above; format: in vitro ADME; details: liver microsomes, pH 7.4, probe resorufin, at 30 μM
T3 sequence (P05177 1-516): T2 sequence (P05177 1-516)
Experimental: as §4

Compound: CCc1ccc(C2NCc3c(Cl)cccc3-n3cccc32)cc1 (centres unmarked)
IC50 (Cytochrome P450 2C8): > 10 µM
IC50 (Cytochrome P450 1A2): > 10 µM
IC50 (Cytochrome P450 2D6): 3.16 µM
IC50 at 10 min (CYP2C9): 10 µM
IC50 (Cytochrome P450 2C19): 1 µM

Compound: CCc1ccc(C2NCc3ccc(Cl)cc3-n3cccc32)cc1 (centres unmarked)
IC50 (Cytochrome P450 2C8): > 10 µM
IC50 (Cytochrome P450 1A2): > 10 µM
IC50 (Cytochrome P450 2D6): 3.98 µM
IC50 at 10 min (CYP2C9): 10 µM
IC50 (Cytochrome P450 2C19): 0.316 µM
IC50 at 10 min (CYP3A4/5): 6.31 µM

%-compound metabolised_Met_hLM [1]: 17%
IC50 [2]: 0.316 µM
IC50 [3]: 7.94 µM
IC50 (Rhizopus oryzae IHEM5223): > 63.1 µM
melting point: 114.4 to 115.7 °C
IC50 [4]: > 63.1 µM
IC50 [5]: 0.501 µM
IC50 [6]: 1 µM
IC50 [7]: 39.8 µM
%-compound metabolised Met_gpLM [8]: 36%
IC50 [9]: 63.1 µM
IC50 [10]: 1.58 µM
IC50 [11]: 12.6 µM
IC50 (Microsporum canis B68128): 2 µM
IC50 [12]: > 63.1 µM
inhibition at 10 min, 30 µM (CYP2D6): 40 to 45%
inhibition at 10 min, 30 µM (CYP1A2; solvent condition A (0.15% DMSO+[…] acetonitrile)): 20 to 25%
inhibition at 10 min, 30 µM (CYP1A2; solvent condition B (0.30% DMSO+0.68% acetonitrile)): 25 to 35%
Compound: CC(=O)c1ccc(C2=NCc3ccc(Cl)cc3-n3cccc32)cc1 [Compound 18, 1-[4-(9-chloro-6H-pyrrolo[1,2-a][1,4]benzodiazepin-4-yl)phenyl]-ethanone]
